# ChEMBL document CHEMBL1147960, “Spectroscopic studies of DNA binding modes of cation-substituted anthrapyrazoles derived from emodin” (Eur J Med Chem, 2007)
# What was measured:
# HepG2 = assay: Cytotoxicity against human HepG2 cells; assay type: functional, cell-based
# B16 = assay: Cytotoxicity against mouse B16 cells; assay type: functional, cell-based
# DNA = assay: Binding affinity to calf thymus DNA; assay type: nucleic-acid assay, Bos taurus
# [1] = Cytotoxicity against mouse LLC cells; assay type: functional, cell-based; conditions: Lewis lung carcinoma
smiles,measurement,setting,value
CCN(CC)CCn1nc2c3c(cc(C)cc31)C(=O)c1cc(OC)cc(OC)c1-2,IC50,HepG2,4.9 µM
same,IC50,B16,3.6 µM
same,Kb,DNA,552000 M⁻¹
same,IC50,[1],4.5 µM
CCN(CC)CCNCCn1nc2c3c(cc(C)cc31)C(=O)c1cc(OC)cc(OC)c1-2,IC50,HepG2,37.6 µM
same,IC50,B16,10.1 µM
same,Kb,DNA,253000 M⁻¹
same,IC50,[1],12.8 µM
COc1cc(OC)c2c(c1)C(=O)c1cc(C)cc3c1c-2nn3CCN1CCN(C)CC1,IC50,HepG2,7.2 µM
same,IC50,B16,20.1 µM
same,Kb,DNA,698000 M⁻¹
same,IC50,[1],8.9 µM
Cc1cc(O)c2c(c1)C(=O)c1cc(O)cc(O)c1C2=O [EMODIN],IC50,HepG2,55.1 µM
same,IC50,B16,> 100 µM
same,Kb,DNA,68000 M⁻¹
same,IC50,[1],> 100 µM
